From patent US20060276464A1, “Diarylsulfone sulfonamides and use thereof” (Wyeth, priority 2005, published 2006)
Several values for one entry are separate records, joined by “and”; a condition that tells them apart may be missing. Identical values can stand only once. Like-named read-outs stand apart in the source and are kept apart here.

Columns and labels:
SFRP-1 [1] = molecular target: T1, SFRP-1 (Homo sapiens, UniProt Q8N474); assay: Cell-based assay for in vitro measurement of SFRP-1/SARP2 antagonist activity (U2OS cells co-transfected with 16x TCF-tk-Luciferase reporter, Wnt and hSFRP-1); details: for fold induction at 10 µM / fold induction at 15 µM: U2OS; for fold induction at 10 µM: read-out: Fold Induction with SFRP-1, U2OS cells, single dose 10 μM, luciferase reporter, fold induction over SFRP-1 control; for fold induction at 15 µM: single dose, luciferase reporter;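 as to all read-outs here: U2OS cells co-transfected with a TCF-tk luciferase reporter, a Wnt vector, hSFRP-1 or empty vector and CMV-βgal, luciferase luminescence read in cell lysates alongside βgal activity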
T1 sequence (Q8N474 32-314): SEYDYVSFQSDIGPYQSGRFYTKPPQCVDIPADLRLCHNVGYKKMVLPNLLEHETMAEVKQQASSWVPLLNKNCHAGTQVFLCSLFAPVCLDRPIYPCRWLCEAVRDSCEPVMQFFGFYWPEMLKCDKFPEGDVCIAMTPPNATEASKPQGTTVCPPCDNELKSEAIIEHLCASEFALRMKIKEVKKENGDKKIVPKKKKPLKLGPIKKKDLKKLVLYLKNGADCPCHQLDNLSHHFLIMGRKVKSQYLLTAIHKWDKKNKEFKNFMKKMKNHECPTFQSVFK

SFRP-1 [2] = molecular target: T1, SFRP-1; assay: Fluorescence polarization binding assay (competitive displacement of a probe compound from SFRP-1); details: fluorescence anisotropy, 45 nM SFRP-1, 20 nM probe;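 also: test compound competes with a fluorescent probe held by SFRP-1, seen as a drop in probe anisotropy after incubation in darkness, with anisotropy as function of rising compound dose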
[3] = read-out: Fold Induction with SFRP-1, Conc 15 μM, fold induction over SFRP-1 control, cells with SFRP-1
[4] = read-out: Fold Induction without SFRP-1, Conc 15 μM, cells without SFRP-1 (specificity control)

Row | SMILES | fold induction at 10 µM (SFRP-1 [1]) | melting point | IC50 (SFRP-1 [2]) | fold induction at 15 µM (SFRP-1 [1]; [3]) | fold induction at 15 µM (SFRP-1 [1]; [4]) | EC50 (SFRP-1 [1])
1 | CC(C)c1ccc(S(=O)(=O)c2ccccc2)cc1S(=O)(=O)NC1CCN(C(=O)c2ccc(C(F)(F)F)cc2)CC1 [Example 807, 2-Isopropyl-5-(phenylsulfonyl)-N-{1-[4-(trifluoromethyl)benzoyl]piperidin-4-yl}benzenesulfonamide] | 3 | 140 to 142 °C | 0.9 µM | – | – | –
2 | O=S(=O)(NCCc1ccccn1)c1cc(S(=O)(=O)c2ccccc2)ccc1C(F)(F)F [Example 571, 5-(Phenylsulfonyl)-N-(2-pyridin-2-ylethyl)-2-(trifluoromethyl)benzenesulfonamide] | – | 149 to 151 °C | 0.13 µM and 0.3 µM | 3.1 | 1.2 | –
3 | COc1ccccc1C(=O)N1CCC(NS(=O)(=O)c2cc(S(=O)(=O)c3ccccc3)ccc2C(C)C)CC1 [Example 803, 2-Isopropyl-N-[1-(2-methoxybenzoyl)piperidin-4-yl]-5-(phenylsulfonyl)benzenesulfonamide] | 3.2 | 160 to 162 °C | 0.29 µM | – | – | –
4 | CC(C)c1ccc(S(=O)(=O)c2ccccc2)cc1S(=O)(=O)NC1CCN(C(=O)c2ccc(F)cc2)CC1 [Example 805, N-[1-(4-Fluorobenzoyl)piperidin-4-yl]-2-isopropyl-5-(phenylsulfonyl)benzenesulfonamide] | 3 | 218 to 220 °C | 0.4 µM | – | – | 0.512 µM
5 | CC(C)c1cc(C(C)C)c(S(=O)(=O)c2ccccc2)cc1S(=O)(=O)NC1CCOCC1 [Example 610, 2,4-Diisopropyl-5-(phenylsulfonyl)-N-(tetrahydro-2H-pyran-4-yl)benzenesulfonamide] | – | 159 to 160 °C | 0.9 µM | 2.5 | 1.1 | –
6 | CC(C)c1ccc(S(=O)(=O)c2ccccc2)cc1S(=O)(=O)NC1C[C@H]2CC[C@@H](C1)N2C.Cl (relative stereo) [Example 860, 2-Isopropyl-N-[(1R*,5S*)-8-methyl-8-azabicyclo[3.2.1]oct-3-yl]-5-(phenylsulfonyl)benzenesulfonamide monohydrochloride] | 4.1 | 90 °C | 0.8 µM | – | – | –
7 | CCCc1ccc(S(=O)(=O)c2ccccc2)cc1S(=O)(=O)NCCCn1ccnc1 [Example 556, N-[3-(1H-Imidazol-1-yl)propyl]-5-(phenylsulfonyl)-2-propylbenzenesulfonamide] | – | 143 to 146 °C | 0.3 µM | 4 | 1.2 | –
8 | CCCc1ccc(S(=O)(=O)c2ccccc2)cc1S(=O)(=O)NC1CCN(C(=O)OC(C)(C)C)CC1 [Example 558, tert-Butyl 4-({[5-(phenylsulfonyl)-2-propylphenyl]sulfonyl}amino)piperidine-1-carboxylate] | – | 128 to 130 °C | 0.7 µM | 1.8 | 1.1 | –
9 | CC(C)c1ccc(S(=O)(=O)c2ccccc2)cc1S(=O)(=O)NC1CCN(C(=O)c2ccccc2)CC1 [Example 802, N-(1-Benzoylpiperidin-4-yl)-2-isopropyl-5-(phenylsulfonyl)benzenesulfonamide] | 2.6 | 225 °C | 0.17 µM | – | – | 0.301 µM
10 | CC(C)c1cc(C(C)C)c(S(=O)(=O)c2ccc(F)cc2)cc1S(=O)(=O)NCCc1cccnc1 [Example 632, 5-[(4-Fluorophenyl)sulfonyl]-2,4-diisopropyl-N-(2-pyridin-3-ylethyl)benzenesulfonamide] | – | 148 to 150 °C | 2.6 µM | 3 | 1 | –
11 | CC(C)c1ccc(S(=O)(=O)c2ccccc2)cc1S(=O)(=O)NC1CCN(C(=O)c2ccccc2F)CC1 [Example 806, N-[1-(2-Fluorobenzoyl)piperidin-4-yl]-2-isopropyl-5-(phenylsulfonyl)benzenesulfonamide] | 2.8 | 210 to 212 °C | 0.23 µM | – | – | 0.238 µM
12 | CC(C)c1cc(C(C)C)c(S(=O)(=O)c2ccccc2)cc1S(=O)(=O)NCCc1ccccn1 [Example 614, 2,4-Diisopropyl-5-(phenylsulfonyl)-N-(2-pyridin-2-ylethyl)benzenesulfonamide] | – | 189 to 191 °C | 1.3 µM | 1.8 | 1 | –
13 | CC(C)c1cc(C(C)C)c(S(=O)(=O)c2ccc(F)cc2)cc1S(=O)(=O)NCCc1ccccc1 [Example 619, 5-[(4-Fluorophenyl)sulfonyl]-2,4-diisopropyl-N-(2-phenylethyl)benzenesulfonamide] | – | 154 to 156 °C | – | 1.3 | 1.1 | –
14 | CCCc1ccc(S(=O)(=O)c2ccc(F)cc2)cc1S(=O)(=O)NC1CCOCC1 [Example 560, 5-[(4-Fluorophenyl)sulfonyl]-2-propyl-N-(tetrahydro-2H-pyran-4-yl)benzenesulfonamide] | – | 131 to 133 °C | 1.7 µM and 2.7 µM | 1.6 | 0.9 | –
15 | COc1ccc(S(=O)(=O)c2ccccc2)cc1S(=O)(=O)NCCc1cccnc1 [Example 678, 2-Methoxy-5-(phenylsulfonyl)-N-(2-pyridin-3-ylethyl)benzenesulfonamide] | 1.6 | 181 to 183 °C | – | – | – | –
16 | CCCc1ccc(S(=O)(=O)c2ccccc2)cc1S(=O)(=O)NC1CCOCC1 [Example 551, 5-(Phenylsulfonyl)-2-propyl-N-(tetrahydro-2H-pyran-4-yl)benzenesulfonamide] | – | 131 to 133 °C | 1 µM | 3.1 | 1.1 | –
17 | COc1ccc(S(=O)(=O)c2ccccc2)cc1S(=O)(=O)NC1CCOCC1 [Example 689, 2-Methoxy-5-(phenylsulfonyl)-N-(tetrahydro-2H-pyran-4-yl)benzenesulfonamide] | 1.2 | 176 to 178 °C | – | – | – | –
18 | CC(C)c1cc(C(C)C)c(S(=O)(=O)c2ccc(F)cc2)cc1S(=O)(=O)NC1CCCC1 [Example 621, N-Cyclopentyl-5-[(4-fluorophenyl)sulfonyl]-2,4-diisopropylbenzenesulfonamide] | – | 202 to 205 °C | – | 1.2 | 1 | –
19 | CC(C)c1cc(C(C)C)c(S(=O)(=O)c2ccc(F)cc2)cc1S(=O)(=O)NC1Cc2ccccc2C1 [Example 634, N-(2,3-Dihydro-1H-inden-2-yl)-5-[(4-fluorophenyl)sulfonyl]-2,4-diisopropylbenzenesulfonamide] | – | 202 to 204 °C | – | 3 | 1 | –
20 | CC(C)c1cc(C(C)C)c(S(=O)(=O)c2ccccc2)cc1S(=O)(=O)NC1Cc2ccccc2C1 [Example 618, N-(2,3-Dihydro-1H-inden-2-yl)-2,4-diisopropyl-5-(phenylsulfonyl)benzenesulfonamide] | – | 215 to 217 °C | – | 2.8 | 1.1 | –
